US5235061A, “Fungicidal (1H-1,2,4-triazolyl)disilaalkanes” (priority 1991, dated 1993)
Where two headings read alike, the source gives them in different places.

Legend:
Assay in all cases: In vitro percent disease control (radii of spore growth on agar)
Format in all cases: cell-based
Alternaria mali = conditions: for inhibition of growth at 50 ppm / inhibition of growth at 100 ppm: Alternaria mali, read-out: % controlled, Al.
Description: (§1) The compounds of this invention were dissolved respectively in acetone in an amount equal to 10% of the final volume and then in purified water at the concentration of 100 ppm and 50 ppm.
(§2) Each of the solution was mixed with potato-sucrose-agar medium in a 6" petri dish and one of the fungi was spotted at the center of the dish. The dish was incubated in growth room for several days. The percent disease control was derived from the radii of spore growth. The screening tests in vitro condition are well-known to those skilled in the art.
(§3) The following fungi were used for the screening.

Rhizopus sp. = conditions: for inhibition of growth at 100 ppm / inhibition of growth at 50 ppm: Rhizopus
Description: as §1, §2, §3

Phytophthora capsisi = conditions: for inhibition of growth at 50 ppm / inhibition of growth at 100 ppm: Phytophthora, read-out: % controlled, Phy ca.
Description: as §1, §2, §3
2) Phy. ca.; Phytophthora capsisi

Physalospora baccae = conditions: for inhibition of growth at 50 ppm / inhibition of growth at 100 ppm: read-out: % controlled, Phy ba.
Description: as §1, §2, §3
3) Phy. ba.; Physalospora baccae

[1] = tested on: Botryosphaeria dothidea Macrophoma sp.; conditions: for inhibition of growth at 50 ppm / inhibition of growth at 100 ppm: Botryosphaeria dothidea, read-out: % controlled, Bo.do (Ma.)
Description: as §1, §2, §3
4) Bo.do(Ma); Botryosphaeria dothidea Macrophoma sp.

Glomerella cingulata = conditions: for inhibition of growth at 50 ppm / inhibition of growth at 100 ppm: Colletotrichum gloeosporioides, read-out: % controlled, Glo.
Description: as §1, §2, §3
5) Glo.; Glomerella cingulata

Pyricalaria oryzae = conditions: for inhibition of growth at 50 ppm: read-out: % controlled, Py. or., 50 ppm; for inhibition of growth at 100 ppm: read-out: % controlled, Py. or., 100 ppm
Description: as §1, §2, §3
6) Py.or.; Pyricalaria oryzae

Rhizoctonia solani = conditions: for inhibition of growth at 50 ppm / inhibition of growth at 100 ppm: Rhizoctonia solani, read-out: % controlled, Rhy. so.
Description: as §1, §2, §3
7) Rhi.so.; Rhizoctonia solani

Fusarium moniliforme = tested on: Fusarium moniliforme
Description: as §1, §2, §3
8) Fu.mo.; Fusarium moniliforme

Botry tris cinerea = conditions: for inhibition of growth at 50 ppm / inhibition of growth at 100 ppm: read-out: % controlled, Bo ci.
Description: as §1, §2, §3
10) Bo.ci.; Botry tris cinerea

[2] = 100 ppm, read-out: % controlled, Rhi. sp.
[3] = 50 ppm, read-out: % controlled, Rhi. sp.

SMILES	inhibition of growth at 50 ppm (Alternaria mali; 50 ppm)	inhibition of growth at 100 ppm (Alternaria mali; 100 ppm)	inhibition of growth at 100 ppm (Rhizopus sp.; [2])	inhibition of growth at 50 ppm (Phytophthora capsisi; 50 ppm)	inhibition of growth at 100 ppm (Phytophthora capsisi; 100 ppm)	inhibition of growth at 50 ppm (Physalospora baccae; 50 ppm)	inhibition of growth at 100 ppm (Physalospora baccae; 100 ppm)	inhibition of growth at 50 ppm ([1]; 50 ppm)	inhibition of growth at 100 ppm ([1]; 100 ppm)	inhibition of growth at 50 ppm (Glomerella cingulata; 50 ppm)	inhibition of growth at 100 ppm (Glomerella cingulata; 100 ppm)	inhibition of growth at 50 ppm (Pyricalaria oryzae)	inhibition of growth at 100 ppm (Pyricalaria oryzae)	inhibition of growth at 50 ppm (Rhizoctonia solani; 50 ppm)	inhibition of growth at 100 ppm (Rhizoctonia solani; 100 ppm)	% controlled, Fu. mo. (Fusarium moniliforme; 50 ppm)	% controlled, Fu. mo. (Fusarium moniliforme; 100 ppm)	inhibition of growth at 50 ppm (Botry tris cinerea; 50 ppm)	inhibition of growth at 100 ppm (Botry tris cinerea; 100 ppm)	inhibition of growth at 50 ppm (Rhizopus sp.; [3])	further results
CCOc1ccc([Si](C)(C)C[Si](C)(Cn2cncn2)c2ccc(F)cc2)cc1 (stereo not shown) [4-(4-ethoxyphenyl)-2-(4-fluorophenyl)-2,4-dimethyl-2,4-disila-1-(1H-1,2,4-triazol-1-yl)pentane]	63%	72%	43%	50%	60%	53%	74%	74%	78%	71%	77%	100%	100%	78%	78%	58%	63%	69%	66%		inhibition of growth at 50 ppm (Rhizopus sp.; read-out: % controlled, Rhi. sp., 50 ppm): 19%
CCOc1ccc([Si](Cn2cncn2)(C[Si](C)(C)c2ccc(F)cc2)c2ccc(OCC)cc2)cc1 [2,2-bis(4-ethoxyphenyl)-4-(4-fluorophenyl)-4-methyl-2,4-disila-1-(1H-1,2,4-triazol-1-yl)pentane]	63%	72%	43%	50%	60%	53%	74%	74%	78%	71%	77%	100%	100%	78%	78%	58%	63%	69%	66%	19%	
C[Si](C)(C[Si](Cn1cncn1)(c1ccc(Cl)cc1)c1ccc(Cl)cc1)c1ccc(F)cc1 [2,2-bis(4-chlorophenyl)-4-(4-fluorophenyl)-4-methyl-2,4-disila-1-(1H-1,2,4-triazol-1-yl)pentane]	51%	58%	32%	6%	9%	44%	48%	54%	61%	0%	0%	57%	57%	43%	77%	41%	55%	37%	53%	26%	
C[Si](C)(C[Si](Cn1cncn1)(c1ccc(F)cc1)c1ccc(F)cc1)c1ccc(Cl)cc1 [4-(4-chlorophenyl)-2,2-bis(4-fluorophenyl)-4-methyl-2,4-disila-1-(1H-1,2,4-triazol-1-yl)pentane]	32%	34%	89%	10%	12%	80%	100%	76%	87%	87%	90%	76%	87%	100%	100%	45%	56%	76%	80%	78%	
C[Si](C)(C)C[Si](Cn1cncn1)(c1ccc(Cl)cc1)c1ccc(Cl)cc1 [2,2-bis(4-chlorophenyl)-4,4-dimethyl-2,4-disila-1-(1H-1,2,4-triazol-1-yl)pentane]	75%	79%	54%	28%	34%	90%	100%	70%	72%	83%	89%	90%	95%	56%	66%	46%	65%	67%	85%	51%	
C[Si](C)(C[Si](C)(Cn1cncn1)c1ccc(Cl)cc1)c1ccc(F)cc1 (stereo not shown) [2-(4-chlorophenyl)-4-(4-fluorophenyl)-2,4-dimethyl-2,4-disila-1-(1H-1,2,4-triazol-1-yl)pentane]	38%	38%	20%	0%	0%	20%	20%	43%	43%	67%	73%	46%	48%	31%	50%	34%	58%	13%	18%	18%	
C=CC[Si](C)(Cn1cncn1)C[Si](CC=C)(CC=C)c1ccc(F)cc1 (stereo not shown) [6-(4-fluorophenyl)-4-methyl-6-(2-propenyl)-4,6-disila-4-(1H-1,2,4-triazol-1-ylmethyl)-1,8-nonadiene]	78%	90%	58%	55%	60%	90%	95%	79%	90%	82%	85%	100%	100%	96%	96%	60%	60%	90%	95%	56%	
C=CC[Si](C[Si](CC)(Cn1cncn1)c1ccc(OCC)cc1)(c1ccc(F)cc1)c1ccc(F)cc1 (stereo not shown) [6-(4-ethoxyphenyl)-4,4-bis(4-fluorophenyl)-6-ethyl-4,6-disila-7-(1H-1,2,4-triazol-1-yl)-1-heptane]																90%	90%				% controlled, Al. (Alternaria mali; 50 ppm): 100%; % controlled, Al. (Alternaria mali; 100 ppm): 100%; % controlled, Rhi. sp. (Rhizopus sp.; 50 ppm): 80%; % controlled, Rhi. sp. (Rhizopus sp.; 100 ppm): 90%; % controlled, Phy ca. (Phytophthora capsisi; 50 ppm): 80%; % controlled, Phy ca. (Phytophthora capsisi; 100 ppm): 90%; % controlled, Phy ba. (Physalospora baccae; 50 ppm): 60%; % controlled, Phy ba. (Physalospora baccae; 100 ppm): 75%; % controlled, Bo.do (Ma.) ([1]; 50 ppm): 65%; % controlled, Bo.do (Ma.) ([1]; 100 ppm): 69%; % controlled, Glo. (Glomerella cingulata; 50 ppm): 80%; % controlled, Glo. (Glomerella cingulata; 100 ppm): 80%; % controlled, Py. or. (Pyricalaria oryzae; 50 ppm): 70%; % controlled, Py. or. (Pyricalaria oryzae; 100 ppm): 75%; % controlled, Rhy. so. (Rhizoctonia solani; 50 ppm): 100%; % controlled, Rhy. so. (Rhizoctonia solani; 100 ppm): 100%; % controlled, Bo ci. (Botry tris cinerea; 50 ppm): 60%; % controlled, Bo ci. (Botry tris cinerea; 100 ppm): 60%
